Experiments:
[1] = tested on: Drosophila suzukii (SWD); assay: SWD laboratory two-choice oviposition bioassay on raspberries; format: in vivo; set-up: key to Behavioral activity (SWD oviposition group): Negative: “SWD negative” compounds (i.e., SWD oviposition was reduced); Neutral: “SWD neutral” compounds (i.e., no effect on oviposition); conditions: for Behavioral activity (SWD oviposition group): individual CFA component; for Behavioral activity (SWD oviposition group) / effect on SWD oviposition vs control / eggs oviposited among all treated raspberries: two-choice; for reduced SWD oviposition / SWD oviposition deterrence / effect on SWD oviposition vs control / eggs oviposited among all treated raspberries: individual compound; for reduced SWD oviposition: 0.2 mg dose; for SWD oviposition deterrence: 2 mg dose; for effect on SWD oviposition vs control / eggs oviposited among all treated raspberries: 20 mg dose
Protocol: Laboratory choice test 1 Oviposition bioassays were conducted at USDA-ARS in Hilo, Hawaii using a laboratory two-choice cage experimental set-up with organic raspberries purchased from a local grocery as an oviposition substrate. For all laboratory assays listed below, the receptacles of the raspberries were stuffed with cotton to prevent flies from ovipositing on the interior of the fruit as described previously in Cha D H et al. (2021, supra). The two-choice oviposition bioassay was conducted over 24 hours in screened cages (30 cm W×30 cm L×30 cm H; BugDorm-2120 Insect tent; shop.bugdorm.com) with 30 female and 10 male SWD (7-8 days old) released per cage. Each cage was provided with cotton moistened with water in a 20 mL deli cup and two 30 mL deli cups; one with two raspberries treated with CFA diluted in hexane and the other with two raspberries treated with hexane only. Each raspberry was surface-treated either with 200 μL of hexane or 200 μL of CFA in one of three doses (20, 2, or 0.2 mg CFA/200 μL hexane), placed into a fume hood for 10 minutes or until used in the bioassay. The deli cups with the treated berries were positioned in the center of the floor of the screened cage, 17 cm apart from each other. Female flies were allowed to oviposit on the surface of raspberries for 24 hours. At the conclusion of the bioassay, each 30 mL deli cup containing two raspberries was moved into a 600 mL deli cup with a mesh cap, held for 8 days (22.1±1.9° C., 71.7±3.1% RH, 16:8 L:D), when the number of larvae and pupae were counted. The experiment was replicated four times per treatment. Laboratory choice test 2 A series of bioassays were conducted in Hilo, Hawaii to identify key bioactive deterrent components of CFA for SWD using the same two-choice bioassay described above. […] Due to solubility differences, ethanol was used as control and for dilution of C16:0 and C18:0, while hexane was used as control and for dilution of the other six compounds tested. Based on the outcome of these bioassays, the eight free fatty acid components of CFA were grouped into two groups; “SWD negative” compounds (i.e., SWD oviposition was reduced) and “SWD neutral” compounds (i.e., no effect on oviposition), and tested whether the blend of “SWD negative” compounds had the same oviposition deterrence as the CFA at their equivalent concentrations as in CFA (see Table 2). The oviposition deterrence of the blend of “SWD negative” compounds was first compared to hexane at three different doses (20, 2 and 0.2 mg CFA equivalent/raspberry) and subsequently compared to CFA at 2 mg equivalent dose.

[2] = tested on: Bactrocera dorsalis (OFF); assay: OFF two-choice cage oviposition bioassay on guava juice-infused agar; format: in vivo; set-up: key to Activity (OFF oviposition group): Negative: “OFF negative” (i.e., oviposition reduced); Neutral: “OFF neutral” (i.e., no effect on oviposition); Positive: “OFF positive” (i.e., oviposition increased); conditions: for OFF oviposition reduction vs control agar: 20 mg/agar, 3 days; for Activity (OFF oviposition group): individual CFA component
Protocol: Evaluation of oviposition deterrence of CFA: OFF oviposition bioassays were conducted using laboratory two-choice cage experiments with guava juice-infused agar as an oviposition substrate. The agar plates were prepared by pouring 30 mL of boiled agar mixture [1000 mL distilled water, 500 mL guava juice (Deans Foods, El Paso, Texas, USA), 10 g agar, 0.6 g methylparaben, 6.7 mL 95% ethanol, and 3 mL acetic acid] into a 30 mL deli plastic cup to gel. The agar was then covered with a lid to avoid desiccation. The two-choice oviposition bioassay was conducted in screened cages using 20 mated OFF females per cage (12-18 day-old; Jang E B et al., 1997, “Attraction of female oriental fruit fly, Bactrocera dorsalis, to volatile semiochemicals from leaves and extracts of a non-host plant, Panax (Polyscias guilfoylei) in laboratory and olfactometer assays,” J. Chem. Ecol. 23:1389-1401) over 3 days. Each cage was provided with a ball of water-saturated cotton, sugar, and protein hydrolysate in separate 30 mL deli cups and two guava juice agar plates-one treated with CFA diluted in hexane and the other treated with the hexane control. The agar plates were surface-treated either with 200 μL of hexane or 200 μL of CFA in one of 4 doses tested (20, 2, 0.2, and 0.02 mg/200 μL of hexane), placed into a fume hood for 10 minutes prior to use in bioassays, and positioned upside-down (i.e., treated side down) on the center of the outside top of the screened cage 17 cm apart from each other (i.e., one each of control and CFA treated), allowing female flies to oviposit on guava juice agar from the bottom through the cage screen. After three days, OFF eggs in the guava agar were gently separated from the agar in water and the number of eggs were individually counted (up to 100 eggs) or estimated volumetrically at 1 mL OFF eggs=20,000 eggs (Stephanie Gayle personal communication). The experiment was replicated six times per treatment. Determination of bioactive oviposition deterrent components from CFA: A series of bioassays was conducted to identify key deterrent components of CFA for OFF using the same two-choice bioassay design described above. […] Ethanol was used as control and for preparing dilutions of C16:0 and C18:0. Hexane was used as control and for dilutions of the other six compounds tested. Based on the outcome of these bioassays, the eight free fatty acid components were assigned to “OFF negative” (i.e., oviposition reduced), “OFF neutral” (i.e., no effect on oviposition), and “OFF positive” (i.e., oviposition increased) compound groups. Using these groupings, four different blends were formulated (indicated in Table 1), composed at the equivalent ratios and concentrations of each component found in CFA (Zhu J J et al., 2018, supra), to determine key bioactive CFA components in terms of oviposition deterrence on OFF. The approach involved testing the bioactivity of the OFF negative-component blend (4c blend) for oviposition deterrence at three different doses (2, 0.2, and 0.02 mg CFA equivalent/agar), first comparing with hexane control, then with CFA at respective equivalent doses. As the 4c blend was not as effective as CFA, a “OFF negative+OFF neutral” component blend (6c blend) was then formulated, and its effect compared with CFA at 2 and 0.2 mg CFA equivalent/agar. Two subtraction blends with one of the two OFF neutral components removed from the 6c blend (5c-i and 5c-ii blends) were formulated and compared with the 6c blend at 2 and 0.2 mg CFA equivalent/agar. The experiment was replicated four to six times per treatment.

Row | SMILES | Behavioral activity (SWD oviposition group) [1] | reduced SWD oviposition [1] | SWD oviposition deterrence [1] | effect on SWD oviposition vs control [1] | eggs oviposited among all treated raspberries [1] | OFF oviposition reduction vs control agar [2] | Activity (OFF oviposition group) [2] | OFF oviposition deterrence at lower dose ([2]; individual compound, 2 mg dose)
1 | CCCCCCCC(=O)O [C8:0, caprylic acid] | Negative | not detected | maintained oviposition deterrence | almost completely inhibited oviposition | zero | 95% | Negative | maintained OFF oviposition deterrence
2 | CCCCCCCCCC(=O)O [C10:0, capric acid] | Negative | not detected | maintained oviposition deterrence | almost completely inhibited oviposition | one | 92% | Negative | –
